Measured values: article PMC6404510 (Neural Regeneration Research, 2019)

B1: I^125-interferon-β1b (protein, UniProt P01574 22-187, looked up, variant C17S)
Interferon beta: MSYNLLGFLQRSSNFQSQKLLWQLNGRLEYCLKDRMNFDIPEEIKQLQQFQKEDAALTIYEMLQNIFAIFRQDSSSTGWNETIVENLLANVYHQINHLKTVLEEKLEKEDFTRGKLMSSLHLKRYYGRILHYLKAKEYSHCAWTIVRVEILRNFYFINRLTGYLRN
modifications: I-125 radiolabel

Tests used:
[1] = test system: NeuN+ neurons; assay: Fluorescence tracing of intranasal Alex546-Ins in rat brain sections; type: in vivo; settings: rat brain sections after intranasal Alex546-Ins
[2] = monkeys, intranasal administration; ref Thorne et al., 2008; cited from earlier work

Molecule | Cell type binding Alex546-Ins (NeuN double-immunostaining) [1] | Time of earliest detection in CSF [2] [min]
Alexa Fluor 546-labeled insulin [Alex546-Ins] | on the membrane of NeuN^+ neurons | 
B1 |  | ≤ 30
